Source: patent US10604555B2, “GIP derivatives and uses thereof” (priority 2018, dated 2020)
Entries after “also recorded” stand apart in the source; their conditions may differ.

How the values were obtained:
[1] = target: T1, human GIP receptor (Homo sapiens, UniProt P48546); experiment: In vitro potency (CRE luciferase; whole cells), BHK CRE luc2P hGIPR; assay type: cell-based; details: 0.2% HSA
T1 construct: expressed in transfected cells; host or cells: BHK (parent line BHKTS13), BHK CRE luc2P hGIPR clone #5
T1 sequence (P48546 22-466): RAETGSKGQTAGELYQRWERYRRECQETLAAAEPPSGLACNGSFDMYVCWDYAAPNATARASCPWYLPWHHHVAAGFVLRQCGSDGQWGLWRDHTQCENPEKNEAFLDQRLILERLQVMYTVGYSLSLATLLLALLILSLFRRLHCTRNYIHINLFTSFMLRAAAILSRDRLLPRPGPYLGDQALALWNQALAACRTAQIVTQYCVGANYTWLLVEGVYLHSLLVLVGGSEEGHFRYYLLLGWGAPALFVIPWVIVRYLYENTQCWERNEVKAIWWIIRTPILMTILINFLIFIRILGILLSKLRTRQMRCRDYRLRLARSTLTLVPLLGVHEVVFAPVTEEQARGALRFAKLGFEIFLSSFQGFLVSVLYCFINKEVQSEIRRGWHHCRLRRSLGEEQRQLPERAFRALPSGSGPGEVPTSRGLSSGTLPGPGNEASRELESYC
Method in brief: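 BHK clones carrying a CRE luciferase element, each transfected with one human receptor, were seeded at 5000 cells/well overnight. Compounds were diluted in buffer with 1% ovalbumin and 0.1% Pluronic F-68, with or without human serum albumin. Luminescence was read after steadylite plus; non-linear log(agonist)-response fit, averaged over at least two replicates.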

[2] = Chemical stability: HMWP formation by SEC-MS; assay type: physicochemical; details: 37° C., 4 weeks, 250 μM, pH 7.4
Method: The aim of this study is to determine the chemical stability of GIP derivative compositions. As a measure of stability of the GIP derivative composition, the formation of high molecular weight peptide formation (% HMWP) as a function of time was analysed by size-exclusion chromatography (SEC-MS). Further, the purity loss of the GIP derivative compositions was measured by LCMS. Samples for chemical stability assays were freshly prepared before each assay. […] The pH of the sample was adjusted to the desired value using appropriate amounts of concentrated NaOH and HCl. […] Formation of covalent oligomers (HMWPs) was analysed and identified by a SEC-MS method. […] The LC system was coupled to both a TUV detector operated at 215 nm, 10 Hz and a high resolution QToF mass spectrometer from Waters (Synapt G2S) operated in positive ion mode and m/z range of 100 to 4000 with normal resolution setting. Lock mass correction against Leu-Enkephalin was done every 31 sec. Spectra were processed in MassLynx version 4.1 and MaxEnt deconvoluted.

[3] = ThT fibrillation assay (physical stability); assay type: physicochemical; details: 250 μM, pH 7.4, 37° C., 45 hours of incubation
Method: The Thioflavin T assay was performed as outlined in Schlein (2017), AAPS J, 19(2), 397-408.
This has traditionally been measured by visual inspection of the sample. However, that kind of measurement is very cumbersome and depending on the observer. Therefore, the application of a small molecule indicator probe is much more advantageous. Thioflavin T (ThT) is such a probe and has a distinct fluorescence signature when binding to fibrils [Naiki et al. (1989) Anal. Biochem. 177, 244-249; LeVine (1999) Methods. Enzymol. 309, 274-284].
The time course for fibril formation can be described by a sigmoidal curve with the following expression [Nielsen et al. (2001) Biochemistry 40, 6036-6046]:
Here, F is the ThT fluorescence at the time t. The constant t0 is the time needed to reach 50% of maximum fluorescence. The two important parameters describing fibril formation are the lag-time calculated by t0−2τ and the apparent rate constant kapp 1/τ.
Few of those intermediates nucleate to form a template onto which further intermediates may assembly and the fibrillation proceeds. The lag-time corresponds to the interval in which the critical mass of nucleus is built up and the apparent rate constant is the rate with which the fibril itself is formed.
Samples are prepared freshly before each assay. The drug substance was solved with 250 μM of the GIP derivative in 8 mM phosphate, 14 mg/mL propylene glycol, 58 mM phenol, pH 7.4. The pH of the sample was adjusted to the desired value using appropriate amounts of concentrated NaOH and HCl. Thioflavin T was added to the samples from a stock solution in H2O to a final concentration of 1 μM.
Sample aliquots of 200 μl were placed in each well of a 96 well microtiter plate (Packard OptiPlate™-96, white polystyrene). Four replica of each sample (corresponding to one test condition) was placed in one column of wells. The plate was sealed with Scotch Pad (Qiagen).
Incubation, shaking and measurement of the ThT fluorescence emission were done in a Fluoroskan Ascent FL fluorescence platereader (Thermo Labsystems). […] Fluorescence measurement was done using excitation through a 444 nm filter and measurement of emission through a 485 nm filter.
Each run was initiated by incubating the plate at the assay temperature for 10 min. The plate was measured every 20 minutes for a desired period of time. Between each measurement, the plate was shaken and heated as described.
After completion of the ThT assay the replica of each sample was pooled and centrifuged at 20000 rpm for 30 minutes at 18° C. The supernatant was filtered through a 0.22 μm filter and an aliquot was transferred to a HPLC vial. The concentration of the filtered sample relative to the initial sample (in percentage) was reported as the recovery.
The measurement points were saved in Microsoft Excel format for further processing and curve drawing and fitting was performed using GraphPad Prism. […] The data points were a mean of the four replica and shown with standard deviation error bars. Only data obtained in the same experiment (i.e. samples on the same plate) were presented in the same graph ensuring a relative measure of fibrillation between experiments.
The data set may be fitted to Eq. (1).

[4] = Chemical stability: purity loss by LCMS; assay type: physicochemical; details: 37° C., 4 weeks, 250 μM, pH 7.4
Method: The aim of this study is to determine the chemical stability of GIP derivative compositions. As a measure of stability of the GIP derivative composition, the formation of high molecular weight peptide formation (% HMWP) as a function of time was analysed by size-exclusion chromatography (SEC-MS). Further, the purity loss of the GIP derivative compositions was measured by LCMS. Samples for chemical stability assays were freshly prepared before each assay. […] The pH of the sample was adjusted to the desired value using appropriate amounts of concentrated NaOH and HCl. […] The column oven was kept at 55° C. […] The solvents were pumped from a binary solvent manager system and mixed on the high pressure side in a mixer with a volume of 50 μl. The gradient and flow can be seen in table 4: [table] A Flow-through-needle auto sampler at 8° C. was used to inject 1 μl of each sample. The effluent passed through a tunable UV detector (TUV) tuned to 215 nm. The outlet from the UV detector passed to the electrospray source of the mass spectrometer. The capillary was held at 3 kV and dry nitrogen gas was purged at a flow of 750 I/h and a temperature of 250° C. The source block was kept at 120° C. and the large bore cone was flushed with nitrogen at 50 I/h with standard electrode potentials on the rest of the instrument. The MS was operated in high resolution mode with a nominal resolution of 35000. The ToF analyser was operated in ADC mode with an m/z window from 100-2000.

[5] = Dynamic Light Scattering Stability Index (DLS-SI); assay type: physicochemical; details: concentration only 5 μM instead of 250 μM; pH 7.4, 25° C.

EC50 [1]: 2.24 pM
HMWP formation (%/month) [2]: 0.15 %/month
ThT Assay Lag time [3]: 0 h
Purity loss (%/month) [4]: 86.9 %/month
Compound: CC[C@H](C)[C@H](NC(=O)[C@H](CO)NC(=O)[C@H](Cc1ccc(O)cc1)NC(=O)[C@H](CC(=O)O)NC(=O)[C@H](CO)NC(=O)[C@@H](NC(=O)[C@H](Cc1ccccc1)NC(=O)[C@@H](NC(=O)CNC(=O)[C@H](CCC(=O)O)NC(=O)[C@H](C)NC(=O)[C@@H](N)Cc1ccc(O)cc1)[C@@H](C)O)[C@@H](C)CC)C(=O)N[C@@H](C)C(=O)N[C@@H](CCSC)C(=O)N[C@@H](CC(=O)O)C(=O)N[C@@H](CCCCN)C(=O)N[C@H](C(=O)N[C@@H](Cc1c[nH]cn1)C(=O)N[C@@H](CCC(N)=O)C(=O)N[C@@H](CCC(N)=O)C(=O)N[C@@H](CC(=O)O)C(=O)N[C@@H](Cc1ccccc1)C(=O)N[C@H](C(=O)N[C@@H](CC(N)=O)C(=O)N[C@@H](Cc1c[nH]c2ccccc12)C(=O)N[C@@H](CC(C)C)C(=O)N[C@@H](CC(C)C)C(=O)N[C@@H](C)C(=O)N[C@@H](CCC(N)=O)C(=O)N[C@@H](CCCCN)C(=O)NCC(=O)O)C(C)C)[C@@H](C)CC [hGIP(1-31), reference compound]
DLS-SI precipitates [5]: visible as precipitation; also recorded: Yes^##
